Reference: patent US9428496B2, “Thiazolamine derivative and use thereof as anti-picornaviral infection medicament” (Institute of Pharmacology and Toxicology Academy of …, priority 2010, dated 2016)
Converted amounts (≈) assume the structure as drawn.

System: not given
Assay: not given
Conditions: not given

Compound	melting point [°C]
CCOc1ccc(OCCCCCCN2CCN(c3nccs3)CC2)cc1.Cl [Example 21, 2-{4-[6-(4-ethoxyphenoxy)hexyl]piperazin-1-yl}thiazole hydrochloride]	222 to 224
Cc1ccc(OCCCCCCN2CCN(c3nccs3)CC2)cc1 [Example 8, 2-{4-[6-(4-methylphenoxy)hexyl]piperazin-1-yl}thiazole]	37 to 39
CC(C)(C)c1ccc(OCCCCCN2CCN(c3nccs3)CC2)cc1 [Example 6, 2-{4-[5-(4-tert-butylphenoxy)pentyl]piperazin-1-yl}thiazole]	125 to 127
Brc1ccc(OCCCCCN2CCN(c3nccs3)CC2)cc1.Cl [Example 18, 2-{4-[5-(4-bromophenoxy)pentyl]piperazin-1-yl}thiazole hydrochloride]	221 to 223
c1ccc(OCCCCCCN2CCN(c3nccs3)CC2)cc1 [Example 10, 2-[4-(6-phenoxyhexyl)piperazin-1-yl]thiazole]	37 to 39
Fc1ccc(OCCCCCCN2CCN(c3nccs3)CC2)cc1 [Example 12, 2-{4-[6-(4-fluorophenoxy)hexyl]piperazin-1-yl}thiazole]	58 to 60
CCc1ccc(OCCCCCN2CCN(c3nccs3)CC2)cc1 [Example 4, 2-{4-[5-(4-ethylphenoxy)pentyl]piperazin-1-yl}thiazole]	125 to 127

System: Vero cells
Assay: Toxicity of compounds to the Vero host cells (TC50, TC0)
Type: cell-based
Conditions: not given

Compound	TC0 [µg/mL]	TC50 [µg/mL]
2-{4-[5-(4-tert-butylphenoxy)pentyl]piperazin-1-yl}thiazole hydrochloride [Example 22]	12.5	25.0
5-{4-[3-(4′-ethoxybiphenyl-4-oxy)pentyl]piperazin-1-yl}thiazole [Example 15]	>200.0	>200.0

Same assay, conditions: Vero cells

Compound	TC0 [µg/mL]	TC50 [µg/mL]
CCOc1ccc(OCCCCCCN2CCN(c3nccs3)CC2)cc1.Cl [Example 21, 2-{4-[6-(4-ethoxyphenoxy)hexyl]piperazin-1-yl}thiazole hydrochloride]	3.13	25.0
NC(=O)c1ncn([C@@H]2O[C@H](CO)[C@@H](O)[C@H]2O)n1 [Con, ribavirin, reference compound]	500.0	2000 (≈ 8190 µM)
Cc1ccc(OCCCCCCN2CCN(c3nccs3)CC2)cc1 [Example 8, 2-{4-[6-(4-methylphenoxy)hexyl]piperazin-1-yl}thiazole]	12.5	25.0 (≈ 69.5 µM)
CC(C)(C)c1ccc(OCCCCCN2CCN(c3nccs3)CC2)cc1 [Example 6, 2-{4-[5-(4-tert-butylphenoxy)pentyl]piperazin-1-yl}thiazole]	3.13	6.25 (≈ 16.1 µM)
Brc1ccc(OCCCCCN2CCN(c3nccs3)CC2)cc1.Cl [Example 18, 2-{4-[5-(4-bromophenoxy)pentyl]piperazin-1-yl}thiazole hydrochloride]	0.78	4.96
2-{4-[5-(4-tert-butylphenoxy)pentyl]piperazin-1-yl}thiazole [Example 16]	12.5	25.0
c1ccc(OCCCCCCN2CCN(c3nccs3)CC2)cc1 [Example 10, 2-[4-(6-phenoxyhexyl)piperazin-1-yl]thiazole]	12.5	25.0 (≈ 72.4 µM)
Fc1ccc(OCCCCCCN2CCN(c3nccs3)CC2)cc1 [Example 12, 2-{4-[6-(4-fluorophenoxy)hexyl]piperazin-1-yl}thiazole]	12.5	25.0 (≈ 68.8 µM)
2-{4-[5-(4-tert-butylphenoxy)pentyl]piperazin-1-yl}thiazole [Example 13]	12.5	25.0
CCc1ccc(OCCCCCN2CCN(c3nccs3)CC2)cc1 [Example 4, 2-{4-[5-(4-ethylphenoxy)pentyl]piperazin-1-yl}thiazole]	3.13	12.5 (≈ 34.8 µM)

System: enterovirus EV71 (Shenzhen 98)
Assay: Inhibition of cytopathic effect (CPE) induced by EV71 in Vero cells
Type: cell-based
Conditions: CPE in Vero cells, Reed-Muench method
Description: (§1) Anti-picornaviral activity of the compounds of the present invention in in vitro model Test item: activity screening of compounds against enteroviruses EV71 and Cox A16 Test principle: using Vero cells as virus host, the cytopathic effect of Vero cells induced by the inhibition of compounds against enteroviruses EV71 and Cox A16 was measured.
(§2) 1. Virus strains: enteroviruses EV71 (Shenzhen 98) and Cox A16, passaging in the laboratory.
(§3) Test Method: Vero cells were incubated in a 96-well culture plate. After 24 hours, they were infected with EV71 and Cox A16 by adsorption for 2 hours. After discarding the virus solution, maintenance solutions containing different concentrations of samples and positive controls were added, and, at the same time, cell control wells and virus control wells were set. […] The half inhibitory concentrations (IC50) of the samples against EV71 and Cox A16 were respectively calculated according to the Reed-Muench method.

Compound	EV71 IC50 [µg/mL]	IC50 [µg/mL]
2-{4-[5-(4-tert-butylphenoxy)pentyl]piperazin-1-yl}thiazole hydrochloride [Example 22]	1.97	
5-{4-[3-(4′-ethoxybiphenyl-4-oxy)pentyl]piperazin-1-yl}thiazole [Example 15]	>200.0	
CCOc1ccc(OCCCCCCN2CCN(c3nccs3)CC2)cc1.Cl [Example 21, 2-{4-[6-(4-ethoxyphenoxy)hexyl]piperazin-1-yl}thiazole hydrochloride]		1.97
NC(=O)c1ncn([C@@H]2O[C@H](CO)[C@@H](O)[C@H]2O)n1 [Con, ribavirin, reference compound]		517 (≈ 2120 µM)
Cc1ccc(OCCCCCCN2CCN(c3nccs3)CC2)cc1 [Example 8, 2-{4-[6-(4-methylphenoxy)hexyl]piperazin-1-yl}thiazole]		> 12.5
CC(C)(C)c1ccc(OCCCCCN2CCN(c3nccs3)CC2)cc1 [Example 6, 2-{4-[5-(4-tert-butylphenoxy)pentyl]piperazin-1-yl}thiazole]		> 3.13
Brc1ccc(OCCCCCN2CCN(c3nccs3)CC2)cc1.Cl [Example 18, 2-{4-[5-(4-bromophenoxy)pentyl]piperazin-1-yl}thiazole hydrochloride]		> 0.78
2-{4-[5-(4-tert-butylphenoxy)pentyl]piperazin-1-yl}thiazole [Example 16]	>12.5	
c1ccc(OCCCCCCN2CCN(c3nccs3)CC2)cc1 [Example 10, 2-[4-(6-phenoxyhexyl)piperazin-1-yl]thiazole]		> 12.5
Fc1ccc(OCCCCCCN2CCN(c3nccs3)CC2)cc1 [Example 12, 2-{4-[6-(4-fluorophenoxy)hexyl]piperazin-1-yl}thiazole]		> 12.5
2-{4-[5-(4-tert-butylphenoxy)pentyl]piperazin-1-yl}thiazole [Example 13]	>12.5	
CCc1ccc(OCCCCCN2CCN(c3nccs3)CC2)cc1 [Example 4, 2-{4-[5-(4-ethylphenoxy)pentyl]piperazin-1-yl}thiazole]		> 3.13

Same assay, conditions: SI, EV71, Vero cells

Compound	EV71 SI
2-{4-[5-(4-tert-butylphenoxy)pentyl]piperazin-1-yl}thiazole hydrochloride [Example 22]	12.7
CCOc1ccc(OCCCCCCN2CCN(c3nccs3)CC2)cc1.Cl [Example 21, 2-{4-[6-(4-ethoxyphenoxy)hexyl]piperazin-1-yl}thiazole hydrochloride]	12.7

System: enterovirus Cox A16
Assay: microbe, parasite or virus in culture
Type: cell-based
Conditions: CPE in Vero cells, Reed-Muench method
Description: as §1, §2, §3

Compound	CoxA16 IC50 [µg/mL]
2-{4-[5-(4-tert-butylphenoxy)pentyl]piperazin-1-yl}thiazole hydrochloride [Example 22]	6.25
5-{4-[3-(4′-ethoxybiphenyl-4-oxy)pentyl]piperazin-1-yl}thiazole [Example 15]	100
2-{4-[5-(4-tert-butylphenoxy)pentyl]piperazin-1-yl}thiazole [Example 16]	4.30
2-{4-[5-(4-tert-butylphenoxy)pentyl]piperazin-1-yl}thiazole [Example 13]	7.87

Same assay, conditions: Enterovirus, Vero, read-out: CoxA16 IC50

Compound	IC50 [µg/mL]
NC(=O)c1ncn([C@@H]2O[C@H](CO)[C@@H](O)[C@H]2O)n1 [Con, ribavirin, reference compound]	363 (≈ 1490 µM)

Same assay, conditions: Enterovirus; CPE in Vero cells, Reed-Muench method; read-out: CoxA16 IC50

Compound	IC50 [µg/mL]
CCOc1ccc(OCCCCCCN2CCN(c3nccs3)CC2)cc1.Cl [Example 21, 2-{4-[6-(4-ethoxyphenoxy)hexyl]piperazin-1-yl}thiazole hydrochloride]	3.13
Cc1ccc(OCCCCCCN2CCN(c3nccs3)CC2)cc1 [Example 8, 2-{4-[6-(4-methylphenoxy)hexyl]piperazin-1-yl}thiazole]	4.96 (≈ 13.8 µM)
CC(C)(C)c1ccc(OCCCCCN2CCN(c3nccs3)CC2)cc1 [Example 6, 2-{4-[5-(4-tert-butylphenoxy)pentyl]piperazin-1-yl}thiazole]	1.57 (≈ 4.05 µM)
Brc1ccc(OCCCCCN2CCN(c3nccs3)CC2)cc1.Cl [Example 18, 2-{4-[5-(4-bromophenoxy)pentyl]piperazin-1-yl}thiazole hydrochloride]	> 0.78
c1ccc(OCCCCCCN2CCN(c3nccs3)CC2)cc1 [Example 10, 2-[4-(6-phenoxyhexyl)piperazin-1-yl]thiazole]	12.5 (≈ 36.2 µM)
Fc1ccc(OCCCCCCN2CCN(c3nccs3)CC2)cc1 [Example 12, 2-{4-[6-(4-fluorophenoxy)hexyl]piperazin-1-yl}thiazole]	> 12.5
CCc1ccc(OCCCCCN2CCN(c3nccs3)CC2)cc1 [Example 4, 2-{4-[5-(4-ethylphenoxy)pentyl]piperazin-1-yl}thiazole]	1.97 (≈ 5.48 µM)

Same assay, conditions: SI, CoxA16, Vero cells

Compound	CoxA16 SI
2-{4-[5-(4-tert-butylphenoxy)pentyl]piperazin-1-yl}thiazole hydrochloride [Example 22]	4.0
5-{4-[3-(4′-ethoxybiphenyl-4-oxy)pentyl]piperazin-1-yl}thiazole [Example 15]	>2.0
CCOc1ccc(OCCCCCCN2CCN(c3nccs3)CC2)cc1.Cl [Example 21, 2-{4-[6-(4-ethoxyphenoxy)hexyl]piperazin-1-yl}thiazole hydrochloride]	8.0
Cc1ccc(OCCCCCCN2CCN(c3nccs3)CC2)cc1 [Example 8, 2-{4-[6-(4-methylphenoxy)hexyl]piperazin-1-yl}thiazole]	5.0
CC(C)(C)c1ccc(OCCCCCN2CCN(c3nccs3)CC2)cc1 [Example 6, 2-{4-[5-(4-tert-butylphenoxy)pentyl]piperazin-1-yl}thiazole]	4.0
2-{4-[5-(4-tert-butylphenoxy)pentyl]piperazin-1-yl}thiazole [Example 16]	5.8
c1ccc(OCCCCCCN2CCN(c3nccs3)CC2)cc1 [Example 10, 2-[4-(6-phenoxyhexyl)piperazin-1-yl]thiazole]	2.0
2-{4-[5-(4-tert-butylphenoxy)pentyl]piperazin-1-yl}thiazole [Example 13]	3.2
CCc1ccc(OCCCCCN2CCN(c3nccs3)CC2)cc1 [Example 4, 2-{4-[5-(4-ethylphenoxy)pentyl]piperazin-1-yl}thiazole]	6.3
